Source: PMC8003343 (Pharmaceuticals, 2021)

Experiments:
[1] = Metabolite profiles in liver microsomes from various species (HPLC-UV/LCMS); assay type: in vitro ADME, human, rat, mouse, dog, mini pig, rhesus monkey; settings: for Species (liver microsomes in which the peak was found): h human, r rat, m mouse, d dog, mp mini pig, rh rhesus, brackets indicate minor peaks, 275 nm; for number of metabolites produced by microsomal metabolism: in the microsomes of the test species; for species whose metabolite profile is most similar to the human metabolite profile: liver microsomes
Description: Microsomal assays aimed at metabolite profiling were conducted according to the protocol described in Section 4.3.1, but with 10 µL substrate (CBX, MCBX, CPFPX) in a total incubation volume of 1 mL. In Table 6, microsomal protein concentrations and incubation times used in the individual assays are listed. Blank samples containing all matrix components but no substrate were included. Incubations were terminated by adding two volumens of a mixture of MeOH/MeCN (50:50, v/v, cooled to −20 °C). Samples were then vortexed (1 min, 21 °C), centrifuged (10 min, 20,000× g rcf, 21 °C), and evaporated to dryness using a centrifugal vacuum concentrator (Concentrator 5301, Eppendorf, Wesseling-Berzdorf, Germany) set to a temperature of 45 °C. Dried samples were reconstituted with 160 µL HPLC eluent (MeCN/H2O/AcOH 35:65:0.1 (v/v/v)) and centrifuged (3 min, 20,000× g rcf, 21 °C). Aliquots of the clear supernatant (25 µL) were subsequently injected into the HPLC system. Chromatographic parameters were the same as described in Section 4.3.1, except for the addition of a 3 mm NH2 guard column (OPTI-GUARD, Optimize Technologies Inc., Oregon City, OR, USA). For LCMS analyses, the UV-detector outlet was coupled to a mass spectrometer (MSQ PlusTM, Thermo Electron Corporation, San Jose, CA, USA) via an electrospray interface. LCMS parameters were as follows. Nebulizer M gas pressure: 6 bar; desolvation temperature: 500 °C; positive ion mode (ESI+); sprayer voltage: 3000 V; cone voltages: 50 V (unfragmented spectra) or 185 V (fragmented spectra), m/z range 1–800; scan time: 1 s. Mass spectra were analyzed using Xcalibur software (version 3.0).

[2] = from [18F]CPFPX; cited from earlier work
[3] = from [18F]CPFPX; cited from earlier work; remark: listed apart in the source
[4] = rats and mice after [18F]CPFPX injection; cited from earlier work
[5] = radiometabolite of [18F]CPFPX; cited from earlier work
[6] = Enone metabolite formation in human liver microsomes; assay type: in vitro ADME; settings: 6 at 4 µM, 1.0 mg/mL HLM, 150 min
Description: (§1) In preliminary experiments, the potential enone precursors 5–8 (8 µM) were incubated with either RLM (0.4 mg/mL) or HLM (0.8 mg/mL) for up to 4 h according to the protocol given in Section 4.3.1. Multiple samples were taken during incubation and analyzed with regard to the presence of the enone metabolite 4 in the incubation mixture.
(§2) The time course of the formation of 4 from precursor 6 was monitored by incubation of 6 (4 µM) with either 1.0 mg/mL HLM for 150 min or 0.4 mg/mL RLM for 100 min according to the procedures described in Section 4.3.1. but with a prolonged centrifugation cycle (15 min) for protein precipitation. Chromatographic separation was performed on a Kromasil C18 column (see Section 4.3.1) equipped with a 3 mm NH2 guard column (OPTI-GUARD, Optimize Technologies Inc., Oregon City, OR, USA) using an eluent composed of MeCN/H2O/AcOH 45:55:0.1 (v/v/v). All other chromatographic parameters resembled those given above. Incubations were conducted in triplicate.

[7] = Enone metabolite formation in rat liver microsomes; assay type: in vitro ADME; settings: 6 at 4 µM, 0.4 mg/mL RLM, 100 min
Description: as §1, §2

[8] = In vitro intrinsic clearance in human liver microsomes (HLM); assay type: in vitro ADME
Description: (§3) Liver microsomes from Sprague Dawley rats (RLM), CD-1 mice (MLM), beagle dogs (DLM), Göttinger mini pigs (MPLM), rhesus monkeys (RMLM), and humans (HLM, specified total P450 content: 0.286 nmol/mg protein) were obtained from Thermo Fisher Scientific/Life Technologies (Darmstadt, Germany). Optimization of incubation conditions (microsomal protein concentration, substrate solvent, incubation buffer) has been carried out in a previous study. For assessment of intrinsic clearance (CLint), substrate (8 µM CBX, MCBX or CPFPX, stock solutions in DMSO) and microsomes (0.4 mg/mL RLM, MLM, DLM and MPLM, 2.0 mg/mL HLM and 0.04 mg/mL RMLM) were preincubated for 5 min at 37 °C in HEPES buffer (100 mM, pH 7.4) containing MgCl2 (3.3 mM). Enzymatic reactions were initiated by addition of preheated NADPH (1.3 mM) and were allowed to proceed for 30 min. Aliquots (100 µL) were sampled from the incubation mixture (500 µL total volume) at 0 and 30 min. An equal volume of a mixture of MeOH/MeCN (50:50, v/v, cooled to −20 °C) was added to terminate the reaction. After subsequent homogenization on a vortex mixer (1 min, 21 °C) and centrifugation (10 min, 20,000× g rcf, 21 °C), the supernatants (50 µL aliquots) were analyzed via HPLC-UV/VIS (Knauer smartline system equipped with a Rheodyne type 7125 sample injector and a 500 µL sample loop). Chromatographic conditions were as follows. Column: 4.6 mm × 250 mm Kromasil 100-5-C18 (AkzoNobel, Bohus, Sweden); eluent composition: MeCN/H2O/AcOH 48:52:0.2 (v/v/v); flow rate: 1 mL/min; detection wavelength: 275 nm. Microsomal assays were performed in quadruplicate.
(§4) Elimination rate constants (k) of CBX, MCBX, and CPFPX were derived via linear regression analysis of semi-logarithmic peak area vs. time plots.
(§5) In vitro half-life (t1/2) was calculated as:(1) t1/2=ln2/k
(§6) In vitro intrinsic clearance was calculated as follows:(2) Clint=ln2/t1/2[…] where c is the microsomal protein concentration. Since the main focus of the study was to compare CLint between species, but not between compounds, no correction for the microsomal unbound fraction was applied.

[9] = In vitro intrinsic clearance in rat liver microsomes (RLM); assay type: in vitro ADME, Sprague Dawley rats; settings: microsomes from rat, mouse, mini pig, and rhesus
Description: as §3, §4, §5, §6

[10] = In vitro intrinsic clearance in dog liver microsomes (DLM); assay type: in vitro ADME, beagle dogs
Description: as §3, §4, §5, §6

[11] = In vitro intrinsic clearance in rhesus monkey liver microsomes (RMLM); assay type: in vitro ADME, rhesus monkeys; settings: rhesus vs human liver microsomes; highest ratio among the three compounds
Description: as §3, with “Aliquots (100 µL) were sampled from the incubation mixture (500 µL total volume) at 0 and 30 min. An equal volume of a mixture of MeOH/MeCN (50:50, v/v, cooled to −20 °C) was added to terminate the reaction.” left out, “Chromatographic conditions were as follows. Column: 4.6 mm × 250 mm Kromasil 100-5-C18 (AkzoNobel, Bohus, Sweden); eluent composition: MeCN/H2O/AcOH 48:52:0.2 (v/v/v); flow rate: 1 mL/min; detection wavelength: 275 nm. Microsomal assays were performed in quadruplicate.” left out
as §5
In vitro intrinsic clearance was calculated as follows:(2) Clint=ln2/t1/2×c where c is the microsomal protein concentration. […]

[12] = parameters: method as in PMID 1441590; settings: human microsomes from a single donor; cited from earlier work

## CCCn1c(=O)c2[nH]c(C3=CC(=O)CC3)nc2n(CCCF)c1=O [compound 4, 3-(3-Fluoropropyl)-8-(3-oxocyclopent-1-en-1-yl)-1-propylxanthine]
[1]; substrate CPFPX
  species microsomes generating the enone metabolite from CPFPX: exclusively in human and dog microsomes
  Species (liver microsomes in which the peak was found): h, d
[2]
  formation of the enone radiometabolite in human microsomes: extensive formation
[3]
  formation of the enone radiometabolite in microsomes from rats and mice: almost no significant amounts could be detected
[4]
  formation of the enone metabolite in vivo (plasma): generated in vivo
[5]
  blood–brain barrier penetration: does not penetrate the blood–brain barrier
  excretion from the body: slow excretion from the body

## CCCn1c(=O)c2[nH]c(C3=CCCC3)nc2n(CCCF)c1=O [compound 6, 8-(Cyclopent-1-en-1-yl)-3-(3-fluoropropyl)-1-propylxanthine]
[6]
  metabolic fate (time course) in human liver microsomes: biotransformation proceeds from 6 via 9 to 4
[7]
  metabolic fate (time course) in rat liver microsomes: oxidized to produce 9

## CCCn1c(=O)c2[nH]c(C3(C)CCC3)nc2n(CCCF)c1=O [MCBX, 3-(3-Fluoropropyl)-8-(1-methylcyclobutyl)-1-propylxanthine]
[8]
  rank order of CLint: CBX > CPFPX > MCBX
[9]
  rank order of CLint: CPFPX > MCBX > CBX
[10]
  rank order of CLint: CPFPX > MCBX ≈ CBX
[1]
  number of metabolites produced by microsomal metabolism: up to 10 metabolites
  species whose metabolite profile is most similar to the human metabolite profile: Rodent
[1]; substrate MCBX
  Species (liver microsomes in which the peak was found): h, r, m, d, mp, rh

## CCCn1c(=O)c2[nH]c(C3CCC3)nc2n(CCCF)c1=O [CBX, 8-Cyclobutyl-3-(3-fluoropropyl)-1-propylxanthine]
[8]
  rank order of CLint: CBX > CPFPX > MCBX
[9]
  rank order of CLint: CPFPX > MCBX > CBX
[10]
  rank order of CLint: CPFPX > MCBX ≈ CBX
[1]
  species whose metabolite profile is most similar to the human metabolite profile: rhesus monkey and mini pig
[1]; substrate CBX
  Species (liver microsomes in which the peak was found): (h), r, m, d, (mp), rh

## CCCn1c(=O)c2nc(C3CCCC3)[nH]c2n(CCCF)c1=O [CPFPX, 8-Cyclopentyl-3-(3-fluoropropyl)-1-propylxanthine]
[8]
  rank order of CLint: CBX > CPFPX > MCBX
[9]
  rank order of CLint: CPFPX > MCBX > CBX
[10]
  rank order of CLint: CPFPX > MCBX ≈ CBX
[11]
  CLint in rhesus microsomes relative to human microsomes (fold higher): 134 fold
[1]
  number of metabolites produced by microsomal metabolism: up to 12 metabolites
[1]; substrate CPFPX
  Species (liver microsomes in which the peak was found): h, r, m, d, mp, rh

## Cn1c(=O)c2c(ncn2C)n(C)c1=O [caffeine]
[12]
  rate of metabolism in hepatic microsomes, species comparison: considerably higher in hepatic microsomes from humans than in those from rats or monkeys

## CCCn1c(=O)c2[nH]c(C3=CC(O)CC3)nc2n(CCCF)c1=O (centres unmarked) [compound 9, 3-(3-fluoropropyl)-8-(3-hydroxycyclopent-1-en-1-yl)-1-propylxanthine]
[6]
  metabolic fate (time course) in human liver microsomes: further metabolized to 4
[7]
  metabolic fate (time course) in rat liver microsomes: remained constant
